Reference: patent publication US20220221458A1, “NOROVIRUS-BINDING PEPTIDE” (Kao Corporation, priority 2019, published 2022)
Ends that are not written are not given here.

How the values were obtained:
GII.3 VLP = test: Calculation of KD value by bio-layer interferometry (BLI method); type: binding, norovirus; conditions: BLItz, GII.3 VLP 1 and 0.1 mg/mL; for Kd: biotinylated peptide 100 μM on SA chip, calculated from ka and kd; for ka / kd: peptide 100 μM on SA chip
Experimental: <Calculation of KD Value by Bio-Layer Interferometry: BLI Method>
The apparatus used was BLItz™ (manufactured by ForteBio). The tip of SA chip (manufactured by ForteBio) was kept in contact with purified water for 1 minute for hydration and was then kept in contact with a 1% BSA aqueous solution for 1 hour for blocking. The SA chip subjected to blocking treatment was set to the measuring unit of the BLItz™ main body, and measurement was performed according to the program shown in Table 14. The peptides of SEQ ID NOs: 1, 21, and 28 were used, and the concentration was adjusted to 100 μM. The concentration of the GII.3 VLP was adjusted to 1 and 0.1 mg/mL. The measurement data were analyzed using the attached software, and the KD value was calculated based on the Ka and Kd values.

[1] = test system: norovirus VLPs (GII.4, GII.3, GII.17); test: In vitro selection by cDNA display against VLPs with appearance frequency analysis of sequences; conditions: count among peptide aptamer sequences obtained after in vitro selection cycles (7 cycles GII.4, 5 cycles GII.3 and GII.17)
Experimental: The constructed cDNA display and VLPs were incubated in 100 μL of a dialysis selection buffer (20 mM HEPES (pH 7.4), 150 mM NaCl, and 0.05% s Tween 20) at the concentrations shown in Table 9 below at 25° C. for 30 minutes. Subsequently, the resultant was diluted to 1 mL with the dialysis selection buffer, and was put in Float-A-Lyzer G2 Dialysis Device CE, 1000kD MWCO (manufactured by Spectrum Laboratories, Inc.) and was dialyzed with 1 L of the dialysis selection buffer as the external solution at 25° C. During the dialysis, the external solution was replaced with new one 3 times every 2 hours, and the dialysis was performed overnight (for 8 hours) after the 4th replacement. The dialysis product was concentrated with Amicon Ultra 100K (manufactured by Merck Millipore S.A.S.) at 14,000×g for 5 minutes.
To an immunoplate (C-BOTTOM, CLEAR, MICROLON (registered trademark), HIGH BINDING, manufactured by Greiner Bio-One), 100 μL of 3 μg/mL GII.3 or GII.17 VLP solution was added and immobilization was performed at 4° C. overnight. Subsequently, the solution was discarded, and 200 μL of a blocking agent (EMD Millipore™ Blok™ NSB Blocking agents, Thermo Fisher Scientific) was added, followed by gently stirring at room temperature for 2 hours for blocking. On this occasion, wells not immobilizing the VLP were also subjected to similar blocking to be used in preselection.
The solution was discarded from the wells, the wells were washed with 200 μL of a wash buffer (10 mM Hepes (pH 7.4), 150 mM NaCl, and 0.05% Tween 20) three times, and 100 μL of cDNA display (constructed from 1.5 pmol of mRNA-linker) was then put in the wells not immobilizing the VLP, followed by gently stirring at room temperature for 30 minutes to perform preselection. Subsequently, the supernatant containing cDNA display that had not bound to the blocking agent was put in the wells immobilizing the VLP, followed by gently stirring at room temperature for 30 minutes to be bound to the VLP. The supernatant was discarded, washing with 100 μL of the wash buffer was performed four times, and 100 μL of a 5′ SDS solution was then added, followed by incubation at 50° C. for 15 minutes to elute the bound cDNA display.
Subsequently, the VLP-cDNA display complex obtained above was diluted to 100 μL with a dialysis selection buffer, and 10 μL of a coprecipitating agent (Quick-Precip Plus Solution, manufactured by EdgeBio) and 220 μL of 100% ethanol were added, followed by centrifugation at 20,000×g for 5 minutes. Subsequently, the supernatant was discarded, and 1 mL of 70, ethanol was added for rinsing. […] The PCR program was (a) 98° C. for 2 minutes, (b) 95° C. for 20 seconds, (c) 69° C. for 20 seconds, (d) 72° C. for 20 seconds (steps (b) to (d) were performed 25 cycles), and (e) 72° C. for 1 minute.
After the in vitro selection cycle (7 cycles for GII.4 and 5 cycles for GII.3 and GII.17 based on the libraries of 7 cycles obtained by GII.4 dialysis), a sequence library was prepared by the following method, and the sequence information was analyzed. The preparation of the sequence library and the sequencing were performed according to the 16S Metagenomic Sequencing Library Preparation protocol (manufactured by Illumina, Inc.).
The Fastq file of the obtained sequence was converted to a Fasta file, all of the obtained sequences were simultaneously translated from the first base of the start codon (ATG) at position 115 to the third base of the cysteine codon (TGC) at position 156 of the library sequence (SEQ ID NO: 279) using software MEGA.

[2] = target: GII.3 VLP (norovirus GII.3 TCH strain); test: BLI (BLItz), biotin peptide on SA chip, GII.3 VLP at 1 and 0.1 mg/mL

Molecule | Appearance Frequency [1] | also measured
VMMQCP [SEQ ID NO: 28] |  | Kd (GII.3 VLP): 218 µM; ka (GII.3 VLP): 230 M⁻¹ s⁻¹; kd (GII.3 VLP): 0.05 s⁻¹
GKFFCH [SEQ ID NO: 21] |  | Kd (GII.3 VLP): 107 µM; ka (GII.3 VLP): 358 M⁻¹ s⁻¹; kd (GII.3 VLP): 0.0382 s⁻¹
GRRYYI [SEQ ID NO: 1] |  | Kd (GII.3 VLP): 6.01 µM; ka (GII.3 VLP): 9070 M⁻¹ s⁻¹; kd (GII.3 VLP): 0.0546 s⁻¹
9 (GEHAHS; Designed peptide) [compound 9] | 15 | 
82 (ILGGHS; Designed peptide) [compound 82] | 8 | 
188 (HFRRRV; Designed peptide) [compound 188] | 6 | 
168 (DKVCKN; Designed peptide) [compound 168] | 6 | 
135 (NRHLDP; Designed peptide) [compound 135] | 7 | 
122 (ISRRGH; Designed peptide) [compound 122] | 7 | 
56 (HRRGPS; Designed peptide) [compound 56] | 9 | 
10 (GHHVSV; Designed peptide) [compound 10] | 15 | 
147 (RSSSGR; Designed peptide) [compound 147] | 7 | 
17 (RIGHMR; Designed peptide) [compound 17] | 13 | 
61 (PVRALC; Designed peptide) [compound 61] | 9 | 
195 (HSSLVT; Designed peptide) [compound 195] | 6 | 
191 (HLAHKK; Designed peptide) [compound 191] | 6 | 
128 (LWNMYD; Designed peptide) [compound 128] | 7 | 
29 (DLLNSK; Designed peptide) [compound 29] | 11 | 
68 (SSPRSH; Designed peptide) [compound 68] | 9 | 
252 (SRSHWG; Designed peptide) [compound 252] | 6 | 
196 (HVGLDK; Designed peptide) [compound 196] | 6 | 
99 (VYIMNH; Designed peptide) [compound 99] | 8 | 
32 (IMSSIG; Designed peptide) [compound 32] | 11 | 

Molecule | Appearance Frequency [1] | also measured
180 (GFGQWI; Designed peptide) [compound 180] | 6 | 
14 (RSVRMH; Designed peptide) [compound 14] | 14 | 
142 (RIVGSA; Designed peptide) [compound 142] | 7 | 
107 (FRECLY; Designed peptide) [compound 107] | 7 | 
163 (AFDGLG; Designed peptide) [compound 163] | 6 | 
106 (FPTGTT; Designed peptide) [compound 106] | 7 | 
52 (VRYPEI; Designed peptide) [compound 52] | 10 | 
206 (KSMNNG; Designed peptide) [compound 206] | 6 | 
234 (RHGQFF; Designed peptide) [compound 234] | 6 | 
132 (NHDVRF; Designed peptide) [compound 132] | 7 | 
219 (NKSFHR; Designed peptide) [compound 219] | 6 | 
212 (MDHEMF; Designed peptide) [compound 212] | 6 | 
155 (VMVGPS; Designed peptide) [compound 155] | 7 | 
19 (CTYVVE; Designed peptide) [compound 19] | 12 | 
267 (YKASHG; Designed peptide) [compound 267] | 6 | 
205 (KHAWDL; Designed peptide) [compound 205] | 6 | 
261 (VPFPHH; Designed peptide) [compound 261] | 6 | 
151 (STYRSW; Designed peptide) [compound 151] | 7 | 
226 (QCELKD; Designed peptide) [compound 226] | 6 | 
178 (GAKELS; Designed peptide) [compound 178] | 6 | 
3 (GHRLHS; Designed peptide) [compound 3] | 21 | 
24 (LRSGVN; Designed peptide) [compound 24] | 12 | 
141 (RHKVHH; Designed peptide) [compound 141] | 7 | 

Molecule | Appearance Frequency [1] | also measured
36 (VNGVSH; Designed peptide) [compound 36] | 11 | 
143 (RRCKLL; Designed peptide) [compound 143] | 7 | 
244 (RTVPSS; Designed peptide) [compound 244] | 6 | 
40 (FPFGST; Designed peptide) [compound 40] | 10 | 
174 (FGFREL; Designed peptide) [compound 174] | 6 | 
70 (AVGCHV; Designed peptide) [compound 70] | 8 | 
18 (SRWCLS; Designed peptide) [compound 18] | 13 | 
117 (HHYRGL; Designed peptide) [compound 117] | 7 | 
237 (RKCIDR; Designed peptide) [compound 237] | 6 | 
249 (SIITRR; Designed peptide) [compound 249] | 6 | 
134 (NPKAHL; Designed peptide) [compound 134] | 7 | 
192 (HLGFHT; Designed peptide) [compound 192] | 6 | 
183 (GMDLRS; Designed peptide) [compound 183] | 6 | 
88 (SITVLY; Designed peptide) [compound 88] | 8 | 
247 (SEHNRY; Designed peptide) [compound 247] | 6 | 
4 (HLRSIR; Designed peptide) [compound 4] | 18 | 
144 (RRGDNY; Designed peptide) [compound 144] | 7 | 
221 (NRVKPR; Designed peptide) [compound 221] | 6 | 
222 (NSIAHR; Designed peptide) [compound 222] | 6 | 
GRRYYI (also: spacer with Trp and biotin, letters and position not given here) [peptide of SEQ ID NO: 1, synthesized, with spacer sequence and biotin] |  | Kd [2]: 6.01 µM; koff [2]: 0.0546 s⁻¹; kon [2]: 9070 M⁻¹ s⁻¹
GKFFCH (also: spacer with Trp and biotin, letters and position not given here) [peptide of SEQ ID NO: 21, synthesized, with spacer sequence and biotin] |  | Kd [2]: 107 µM; koff [2]: 0.0382 s⁻¹; kon [2]: 358 M⁻¹ s⁻¹
VMMQCP (also: spacer with Trp and biotin, letters and position not given here) [peptide of SEQ ID NO: 28, synthesized, with spacer sequence and biotin] |  | Kd [2]: 218 µM; koff [2]: 0.05 s⁻¹; kon [2]: 230 M⁻¹ s⁻¹
